Experimental data: ChEMBL document CHEMBL1127977, “Benzolactam growth hormone secretagogues: Carboxamides as replacements for the 2-tetrazole moiety of L-692,429” (1994)

Species on record: Rattus norvegicus
Test: Tested in vitro for growth hormone release in rat pituitary cells
Format: functional
Details: Pituitary gland cell, read-out: ED50 (the source's name)

SMILES	EC50
CC(C)(N)CC(=O)N[C@@H]1CCc2ccccc2N(Cc2ccc(-c3ccccc3C(=O)NCCO)cc2)C1=O	3000 nM
CC(C)(N)CC(=O)N[C@@H]1CCc2ccccc2N(Cc2ccc(-c3ccccc3C(=O)NCc3ccc(O)cc3)cc2)C1=O	300 nM
CC(C)(CC(=O)N[C@@H]1CCc2ccccc2N(Cc2ccc(-c3ccccc3-c3nn[nH]n3)cc2)C1=O)NC[C@H](O)CO	10 nM
C[C@@H](O)CNC(C)(C)CC(=O)N[C@@H]1CCc2ccccc2N(Cc2ccc(-c3ccccc3C(N)=O)cc2)C1=O	4 nM
COc1ccc(CNC(=O)c2ccccc2-c2ccc(CN3C(=O)[C@H](NC(=O)CC(C)(C)N)CCc4ccccc43)cc2)cc1	2000 nM
CCN(CC)C(=O)c1ccccc1-c1ccc(CN2C(=O)[C@H](NC(=O)CC(C)(C)N)CCc3ccccc32)cc1	2000 nM
C[C@@H](O)CNC(C)(C)CC(=O)N[C@@H]1CCc2ccccc2N(Cc2ccc(-c3ccccc3-c3nn[nH]n3)cc2)C1=O [L-692585]	3 nM
CC(C)(N)CC(=O)N[C@@H]1CCc2ccccc2N(Cc2ccc(-c3ccccc3C(=O)NCc3ccccc3)cc2)C1=O	900 nM
CCNC(=O)c1ccccc1-c1ccc(CN2C(=O)[C@H](NC(=O)CC(C)(C)N)CCc3ccccc32)cc1	90 nM
CC(C)(N)CC(=O)N[C@@H]1CCc2ccccc2N(Cc2ccc(-c3ccccc3C(N)=O)cc2)C1=O	80 nM
CCCCCNC(=O)c1ccccc1-c1ccc(CN2C(=O)[C@H](NC(=O)CC(C)(C)N)CCc3ccccc32)cc1	> 1000 nM
CC(C)(N)CC(=O)N[C@@H]1CCc2ccccc2N(Cc2ccc(-c3ccccc3C(=O)NCCCCCO)cc2)C1=O	10 nM
CC(C)(N)CC(=O)N[C@@H]1CCc2ccccc2N(Cc2ccc(-c3ccccc3-c3nn[nH]n3)cc2)C1=O	60 nM
CC(C)(N)CC(=O)N[C@@H]1CCc2ccccc2N(Cc2ccc(-c3ccccc3C(=O)NCCCCO)cc2)C1=O	10 nM
CC(C)(CC(=O)N[C@@H]1CCc2ccccc2N(Cc2ccc(-c3ccccc3C(N)=O)cc2)C1=O)NC[C@H](O)CO	3 nM
CC(C)(N)CC(=O)N[C@@H]1CCc2ccccc2N(Cc2ccc(-c3ccccc3C(=O)NCCCO)cc2)C1=O	400 nM
